Results: PubChem BioAssay AID1963837 (Molecular Pharmacology Branch, DTP, NCI, 2024)

System: 843126-344-R-J1-PDC complex spheroid viability
Assay: Anticancer human tumor 843126-344-R-J1-PDC patient-derived melanoma cell line growth inhibition [POLQ]
Conditions: for IC50: curve of first compound; for viability, T/C: stronger effect = lower value
Procedure, shortened: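 PDC + HUVEC + MSC complex spheroids; POLQ inhibitors ± partner drugs; top conc. at/near clinical Cmax, else 10 microM (SN-38 1 microM), half-log dilutions; 37 degrees C, 5% CO2.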

[1] = second compound 0.0316 µM, first compound 0.0316 µM
[2] = second compound 0.0316 µM, first compound 0.1 µM
[3] = second compound 0.1 µM, first compound 0.0316 µM
[4] = second compound 0.1 µM, first compound 0.1 µM
[5] = second compound 0.316 µM, first compound 0.0316 µM
[6] = second compound 0.316 µM, first compound 0.1 µM
[7] = second compound 1 µM, first compound 0.0316 µM
[8] = second compound 1 µM, first compound 0.1 µM
[9] = second compound 3.16 µM, first compound 0.0316 µM
[10] = second compound 3.16 µM, first compound 0.1 µM
[11] = second compound 10 µM, first compound 0.0316 µM
[12] = second compound 10 µM, first compound 0.1 µM
[13] = second compound 0.0316 µM, first compound 0.316 µM
[14] = second compound 0.0316 µM, first compound 1 µM
[15] = second compound 0.0316 µM, first compound 3.16 µM
[16] = second compound 0.0316 µM, first compound 10 µM
[17] = second compound 0.1 µM, first compound 0.316 µM
[18] = second compound 0.1 µM, first compound 1 µM
[19] = second compound 0.1 µM, first compound 3.16 µM
[20] = second compound 0.1 µM, first compound 10 µM
[21] = second compound 0.316 µM, first compound 0.316 µM
[22] = second compound 0.316 µM, first compound 1 µM
[23] = second compound 0.316 µM, first compound 3.16 µM
[24] = second compound 0.316 µM, first compound 10 µM
[25] = second compound 1 µM, first compound 0.316 µM
[26] = second compound 1 µM, first compound 1 µM
[27] = second compound 1 µM, first compound 3.16 µM
[28] = second compound 1 µM, first compound 10 µM
[29] = second compound 3.16 µM, first compound 0.316 µM
[30] = second compound 3.16 µM, first compound 1 µM
[31] = second compound 3.16 µM, first compound 3.16 µM
[32] = second compound 3.16 µM, first compound 10 µM
[33] = second compound 10 µM, first compound 0.316 µM
[34] = second compound 10 µM, first compound 1 µM
[35] = second compound 10 µM, first compound 3.16 µM
[36] = second compound 10 µM, first compound 10 µM
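For viability, T/C in this document: spheroids exposed to drugs for seven days before readout.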

CC[C@@]1(O)C(=O)OCc2c1cc1n(c2=O)Cc2cc3c(CN(C)C)c(O)ccc3nc2-1 + Nc1ccc(C#CCN(C(=O)Cc2ncc(C(F)(F)F)cc2C(F)(F)F)c2ccc(F)cc2)nn1
IC50 (second compound 0.0316 µM): > 100 nM
IC50 (second compound 0.1 µM): > 100 nM
IC50 (second compound 0.316 µM): > 100 nM
IC50 (second compound 1 µM): > 100 nM
IC50 (second compound 3.16 µM): > 100 nM
IC50 (second compound 10 µM): > 100 nM
viability, T/C (second compound 0.0316 µM, first compound 0.000316 µM): 85%
viability, T/C (second compound 0.0316 µM, first compound 0.001 µM): 94%
viability, T/C (second compound 0.0316 µM, first compound 0.00316 µM): 82.8%
viability, T/C (second compound 0.0316 µM, first compound 0.01 µM): 100%
viability, T/C [1]: 71.1%
viability, T/C [2]: 50.2%
viability, T/C (second compound 0.1 µM, first compound 0.000316 µM): 103%
viability, T/C (second compound 0.1 µM, first compound 0.001 µM): 85.8%
viability, T/C (second compound 0.1 µM, first compound 0.00316 µM): 91%
viability, T/C (second compound 0.1 µM, first compound 0.01 µM): 87.7%
viability, T/C [3]: 67.2%
viability, T/C [4]: 55.8%
viability, T/C (second compound 0.316 µM, first compound 0.000316 µM): 96.4%
viability, T/C (second compound 0.316 µM, first compound 0.001 µM): 81.4%
viability, T/C (second compound 0.316 µM, first compound 0.00316 µM): 90.5%
viability, T/C (second compound 0.316 µM, first compound 0.01 µM): 91.7%
viability, T/C [5]: 72%
viability, T/C [6]: 61.1%
viability, T/C (second compound 1 µM, first compound 0.000316 µM): 85.1%
viability, T/C (second compound 1 µM, first compound 0.001 µM): 93.3%
viability, T/C (second compound 1 µM, first compound 0.00316 µM): 102%
viability, T/C (second compound 1 µM, first compound 0.01 µM): 93.9%
viability, T/C [7]: 63.8%
viability, T/C [8]: 49.2%
viability, T/C (second compound 3.16 µM, first compound 0.000316 µM): 93.6%
viability, T/C (second compound 3.16 µM, first compound 0.001 µM): 98.2%
viability, T/C (second compound 3.16 µM, first compound 0.00316 µM): 95.3%
viability, T/C (second compound 3.16 µM, first compound 0.01 µM): 106%
viability, T/C [9]: 64.9%
viability, T/C [10]: 54.7%
viability, T/C (second compound 10 µM, first compound 0.000316 µM): 85.9%
viability, T/C (second compound 10 µM, first compound 0.001 µM): 87.3%
viability, T/C (second compound 10 µM, first compound 0.00316 µM): 87.8%
viability, T/C (second compound 10 µM, first compound 0.01 µM): 92.9%
viability, T/C [11]: 69.2%
viability, T/C [12]: 50%

O=C(Nc1ccc(O)c(NS(=O)(=O)c2ccc(F)cc2)c1)c1ccc(-c2ccccc2)cc1 + Nc1ccc(C#CCN(C(=O)Cc2ncc(C(F)(F)F)cc2C(F)(F)F)c2ccc(F)cc2)nn1
IC50 (second compound 0.0316 µM): > 10000 nM
IC50 (second compound 0.1 µM): > 10000 nM
IC50 (second compound 0.316 µM): > 10000 nM
IC50 (second compound 1 µM): > 10000 nM
IC50 (second compound 3.16 µM): > 10000 nM
IC50 (second compound 10 µM): > 10000 nM
viability, T/C [1]: 82.5%
viability, T/C [2]: 94.9%
viability, T/C [13]: 91.8%
viability, T/C [14]: 80.5%
viability, T/C [15]: 82.2%
viability, T/C [16]: 73.6%
viability, T/C [3]: 91.6%
viability, T/C [4]: 102%
viability, T/C [17]: 82.2%
viability, T/C [18]: 85.4%
viability, T/C [19]: 89.1%
viability, T/C [20]: 64.8%
viability, T/C [5]: 100%
viability, T/C [6]: 92.5%
viability, T/C [21]: 98.8%
viability, T/C [22]: 84.3%
viability, T/C [23]: 96.3%
viability, T/C [24]: 61.5%
viability, T/C [7]: 98.3%
viability, T/C [8]: 97.1%
viability, T/C [25]: 81.3%
viability, T/C [26]: 90%
viability, T/C [27]: 82.2%
viability, T/C [28]: 67.8%
viability, T/C [9]: 92%
viability, T/C [10]: 91.4%
viability, T/C [29]: 89.5%
viability, T/C [30]: 86.1%
viability, T/C [31]: 78.8%
viability, T/C [32]: 67.3%
viability, T/C [11]: 82.3%
viability, T/C [12]: 74.1%
viability, T/C [33]: 86.9%
viability, T/C [34]: 72.4%
viability, T/C [35]: 80.6%
viability, T/C [36]: 55.4%

CC1COCCN1c1cc(C2(O)CC3CCC(C2)O3)c2cnn(-c3ccn[nH]3)c2n1 (stereo unspecified) + Cc1cccc(N(C)C(=O)C2C(O)CCN2c2nc(C)cc(C(F)(F)F)c2C#N)c1
IC50 (second compound 0.0316 µM): 487 nM
IC50 (second compound 0.1 µM): 470 nM
IC50 (second compound 0.316 µM): 580 nM
IC50 (second compound 1 µM): 385 nM
IC50 (second compound 3.16 µM): 640 nM
IC50 (second compound 10 µM): 763 nM
viability, T/C [1]: 95.7%
viability, T/C [2]: 78.6%
viability, T/C [13]: 48.2%
viability, T/C [14]: 44.8%
viability, T/C [15]: 31%
viability, T/C [16]: 20.7%
viability, T/C [3]: 84.6%
viability, T/C [4]: 66%
viability, T/C [17]: 58.5%
viability, T/C [18]: 40.1%
viability, T/C [19]: 28.5%
viability, T/C [20]: 22.2%
viability, T/C [5]: 85.6%
viability, T/C [6]: 74.9%
viability, T/C [21]: 51.3%
viability, T/C [22]: 45.2%
viability, T/C [23]: 34%
viability, T/C [24]: 19.2%
viability, T/C [7]: 99.3%
viability, T/C [8]: 62.8%
viability, T/C [25]: 56.9%
viability, T/C [26]: 40.8%
viability, T/C [27]: 32.7%
viability, T/C [28]: 21%
viability, T/C [9]: 91.2%
viability, T/C [10]: 80.5%
viability, T/C [29]: 51.5%
viability, T/C [30]: 47.5%
viability, T/C [31]: 33.2%
viability, T/C [32]: 20.6%
viability, T/C [11]: 87.7%
viability, T/C [12]: 82.8%
viability, T/C [33]: 63.8%
viability, T/C [34]: 45.2%
viability, T/C [35]: 29.3%
viability, T/C [36]: 17.7%
